According to ChEMBL document CHEMBL4118197, “The discovery and preclinical evaluation of BMS-707035, a potent HIV-1 integrase strand transfer inhibitor” (Bioorg Med Chem Lett, 2018):

Target: Human immunodeficiency virus type 1 integrase (Human immunodeficiency virus 1, UniProt Q7ZJM1)
Test: Inhibition of HIV1 integrase strand transfer activity

Sequence of Human immunodeficiency virus type 1 integrase (Q7ZJM1 whole entry): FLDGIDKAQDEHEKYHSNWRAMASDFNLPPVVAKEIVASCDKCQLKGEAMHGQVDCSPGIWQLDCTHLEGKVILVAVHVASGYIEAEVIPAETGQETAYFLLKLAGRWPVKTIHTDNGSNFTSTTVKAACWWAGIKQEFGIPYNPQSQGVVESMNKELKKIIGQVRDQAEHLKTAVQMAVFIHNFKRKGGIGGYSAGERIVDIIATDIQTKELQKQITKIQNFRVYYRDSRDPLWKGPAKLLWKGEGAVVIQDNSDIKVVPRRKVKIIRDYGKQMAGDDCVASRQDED

IC50: 3 nM
SMILES: CC1(C)OCCn2c1nc(C(=O)NCc1ccc(F)c(Cl)c1)c(O)c2=O
